Measured values as given in patent US20050130989A1, “N-arylheteroaromatic products compositions containing them and use thereof” (Aventis Pharma S. A., priority 2003, published 2005).
pIC50: −log10 of the molar value. Where a name gives a salt, the structure may show the parent alone. Read-outs that look alike come from different tables or passages of the source. Blank lines part the entries; values can stand above or below the compound they belong to.

How the values were obtained:
tubulin = target: T1, tubulin (Sus scrofa, UniProt P02550+P02554); experiment: Evaluation of the inhibition of tubulin polymerization (turbidimetry); type: biochemical, pig; conditions: tubulin 10 μm (1 mg/ml), 37° C., turbidity at 350 nm; concentration that inhibits the rate of polymerization by 50%; read-out: Inhibition of tubulin polymerization IC 50 (μm)
T1 construct: Tubulin is purified from pig brain according to published methods; from tissue; host or cells: pig brain
Procedure, shortened: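 Pig brain tubulin (>95% pure), 10 μm in MES pH 6.8/30% glycerol buffer plus 1 mM GTP and 6 mM MgCl2, with compound at 0.5–10 μm added before polymerization. Polymerization triggered by shift from 6° C to 37° C, followed by turbidity at 350 nm; IC50 is 50% inhibition of polymerization rate.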

HCT116 cells = experiment: Inhibition of proliferation of the human colon tumor line HCT116 ([14C]-thymidine incorporation); type: cell-based; conditions: Homo sapiens, read-out: Inhibition of HCT116 proliferation IC 50 (μm)
Procedure, shortened: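 HCT116 cells (5000/well) in DMEM with 10% fetal calf serum incubated 48 h at 37° C with [14C]-thymidine (0.1 μCi/well) and compound up to 10 μm (DMSO ≤0.5%). Incorporated radioactivity counted; IC50 is concentration cutting radioactivity by 50% versus untreated control.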

[1] = HCT-116, 48 h, 48 hours at 37° C.

T1 sequence (P02550 whole entry): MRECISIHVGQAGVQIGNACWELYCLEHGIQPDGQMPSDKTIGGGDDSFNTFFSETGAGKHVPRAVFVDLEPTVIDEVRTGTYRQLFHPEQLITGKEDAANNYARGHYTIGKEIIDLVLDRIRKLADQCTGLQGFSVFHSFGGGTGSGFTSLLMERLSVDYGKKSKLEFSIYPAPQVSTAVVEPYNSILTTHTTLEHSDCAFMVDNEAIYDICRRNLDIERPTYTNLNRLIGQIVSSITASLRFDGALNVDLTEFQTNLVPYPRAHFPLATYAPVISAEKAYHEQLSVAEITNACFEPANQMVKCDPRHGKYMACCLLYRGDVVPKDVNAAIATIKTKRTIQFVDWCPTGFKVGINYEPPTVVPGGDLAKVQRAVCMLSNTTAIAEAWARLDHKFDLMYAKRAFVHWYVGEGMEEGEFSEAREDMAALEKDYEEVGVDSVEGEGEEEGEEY
T1 sequence (P02554 whole entry): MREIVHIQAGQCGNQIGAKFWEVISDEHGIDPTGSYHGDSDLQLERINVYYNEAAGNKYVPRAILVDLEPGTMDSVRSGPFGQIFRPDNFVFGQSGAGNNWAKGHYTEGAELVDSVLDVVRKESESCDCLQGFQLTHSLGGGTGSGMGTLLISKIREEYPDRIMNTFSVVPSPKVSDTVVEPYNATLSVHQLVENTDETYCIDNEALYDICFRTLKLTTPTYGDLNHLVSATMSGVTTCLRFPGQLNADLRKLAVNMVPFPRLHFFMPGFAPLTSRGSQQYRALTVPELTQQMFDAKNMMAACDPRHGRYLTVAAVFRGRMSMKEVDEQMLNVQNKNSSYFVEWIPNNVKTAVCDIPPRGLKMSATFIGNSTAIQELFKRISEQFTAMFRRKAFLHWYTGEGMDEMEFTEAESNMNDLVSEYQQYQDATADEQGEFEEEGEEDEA

SMILES: Cc1cc(CN2CCN(c3cccc(Cl)c3)CC2)n(-c2ccccc2)n1 [Example E14, [4-(3-chlorophenyl)piperazin-1-yl](5-methyl-2-phenyl-2H-pyrazol-3-yl)methane]
pIC50 (tubulin): 4.92 | pIC50 (HCT116 cells; HCT-116, 48 hours at 37° C.): 5.51

SMILES: Cc1cc(C(=O)N2CCN(c3ccnc4ccccc34)CC2)n(-c2ccccc2)n1 [Example E17, (5-Methyl-2-phenyl-2H-pyrazol-3-yl)(4-quinolin-4-ylpiperazin-1-yl)methanone]
pIC50 (tubulin): 5.82 | pIC50 (HCT116 cells; [1]): 8.07

SMILES: CC(=O)Nc1cccc(N2CCN(C(=O)c3cc(C)nn3-c3ccccc3)CC2)c1 [Example E18, N-{3-[4-(5-methyl-2-phenyl-2H-pyrazole-3-carbonyl)piperazin-1-yl]phenyl}-acetamide]
pIC50 (tubulin): 5.92 | pIC50 (HCT116 cells; [1]): 7.23

SMILES: Cc1cc(C(=O)N2CCN(c3ccccc3)CC2)n(-c2ccccn2)n1 [Example E21, (5-Methyl-2-pyrid-2-yl-2H-pyrazol-3-yl)(4-phenylpiperazin-1-yl)methanone]
pIC50 (tubulin): 5.02 | pIC50 (HCT116 cells; [1]): 6.70

SMILES: Cc1cc(C(=O)N2CCN(c3cccc(Cl)c3)CC2)n(-c2ccccn2)n1 [Example E22, [4-(3-Chlorophenyl)piperazin-1-yl](5-methyl-2-pyrid-2-yl-2H-pyrazol-3-yl)-methanone]
pIC50 (tubulin): 5.72 | pIC50 (HCT116 cells; [1]): 8.19

SMILES: Cc1ccnc(N2CCN(C(=O)c3cc(C)nn3-c3ccccc3)CC2)c1 [Example E31, (5-Methyl-2-phenyl-2H-pyrazol-3-yl)[4-(4-methylpyrid-2-yl)piperazin-1-yl]methanone]
pIC50 (tubulin): 5.82 | pIC50 (HCT116 cells; [1]): 7.68

SMILES: Cc1cc(C(=O)N2CCN(c3cccc(NCc4ccccc4)c3)CC2)n(-c2ccccc2)n1 [Example E32, [4-(3-Phenylmethylaminophenyl)piperazin-1-yl](5-methyl-2-phenyl-2H-pyrazol-3-yl)methanone hydrochloride]
pIC50 (tubulin): 5.51 | pIC50 (HCT116 cells; [1]): 6.29

SMILES: Cc1cc(C(=O)N2CCN(c3cccc(Cl)c3)CC2)n(-c2cnccn2)n1 [Example E36, [4-(3-Chlorophenyl)piperazin-1-yl](5-methyl-2-pyrazin-2-yl-2H-pyrazol-3-yl)-methanone]
pIC50 (tubulin): 4.70 | pIC50 (HCT116 cells; [1]): 6.03

The remaining compounds from weak to strong by pIC50 (tubulin), led by results:

pIC50 (tubulin): 5.19 | pIC50 (HCT116 cells; [1]): 6.87
SMILES: Cc1cc(C(=O)N2CCN(c3cccc(S(C)(=O)=O)c3)CC2)n(-c2ccccc2)n1 [Example E26, [4-(3-Methanesulfonylphenyl)piperazin-1-yl](5-methyl-2-phenyl-2H-pyrazol-3-yl)methanone]

pIC50 (tubulin): 5.47 | pIC50 (HCT116 cells; [1]): 7.22
SMILES: CCOC(=O)c1cccc(N2CCN(C(=O)c3cc(C)nn3-c3ccccc3)CC2)c1 [Example E28, ethyl ester of 3-[4-(5-methyl-2-phenyl-2H-pyrazole-3-carbonyl)piperazin-1-yl]benzoic acid]

pIC50 (tubulin): 5.70 | pIC50 (HCT116 cells; [1]): 7.42
SMILES: Cc1cc(C(=O)N2CCN(c3cccc(Cl)c3)CC2)n(-c2nccs2)n1 [Example E37, [4-(3-Chlorophenyl)piperazin-1-yl](5-methyl-2-thiazol-2-yl-2H-pyrazol-3-yl)-methanone]

pIC50 (tubulin): 5.77 | pIC50 (HCT116 cells; [1]): 6.51
SMILES: Cc1cc(C(=O)N2CCN(c3cccc(-c4ccccc4)c3)CC2)n(-c2ccccc2)n1 [Example E24, [4-(Biphenyl-3-yl)piperazin-1-yl)(5-methyl-2-phenyl-2H-pyrazol-3-yl)methanone]

pIC50 (tubulin): 6.05 | pIC50 (HCT116 cells; [1]): 8.05
SMILES: Cc1cc(C(=O)N2CCN(c3cncc(Cl)c3)CC2)n(-c2ccccc2)n1 [Example E33, [4-(5-Chloro-3-pyridyl)piperazin-1-yl](5-methyl-2-phenyl-2H-pyrazol-3-yl)methanone]

pIC50 (tubulin): 6.10 | pIC50 (HCT116 cells; [1]): 7.85
SMILES: CNc1cccc(N2CCN(C(=O)c3cc(C)nn3-c3ccccc3)CC2)c1 [Example E34, [4-(3-Methylaminophenyl)piperazin-1-yl](5-methyl-2-phenyl-2H-pyrazol-3-yl)-methanone]

pIC50 (tubulin): 6.54 | pIC50 (HCT116 cells; [1]): 8.82
SMILES: COc1cc(OC)cc(N2CCN(C(=O)c3cc(C)nn3-c3ccccc3)CC2)c1 [Example E20, [4-(3,5-Dimethoxyphenyl)piperazin-1-yl](5-methyl-2-phenyl-2H-pyrazol-3-yl)-methanone]
